Tests used:
[1] = tested on: SaGluCl1 (short form “SC”) expressed in CHO cells; experiment: Current measurement in CHO cells expressing SaGluCl1; format: cell-based, Schistocerca americana
Method: FIG. 4A and FIG. 4B show the SaGluCl1 (short form “SC”) expressed in CHO cells assembles into a homomultimer and is activated by ivermectin (FIG. 4A) and nodulasporic acid (FIG. 4B). 100 nM ivermectin and 1 μM nodulasporic acid were added at 20 seconds and current was measured.
PTet-Splice subclones of SaGluCl1 and SaGluCl2 as disclosed in Example section 1 were transfected into CHO Tet-Off cells (Clontech labs, Inc.) using the Lipofectamine Plus reagent (Life Technologies Inc.). Stable cell lines are selected by growth in the presence of G418. Single G418 resistant clones are isolated and shown to contain the intact SaGluCl gene. Clones containing the SaGluCl cDNAs may be analyzed for expression using immunological techniques, such as immuneprecipitation, Western blot, and immunofluorescence using antibodies specific to the SaGluCl proteins. Antibody may obtained from rabbits innoculated with peptides that are synthesized from the amino acid sequence predicted from the SaGluCl sequences. Expression is also analyzed using patch clamp electrophysiological techniques, an anion flux assay, and ^3H-ivermectin and ^3H-glutamate binding assays.
The expression of recombinant SaGluCl1 and/or SaGluCl2 is achieved by transfection of the full-length SaGluCl cDNA into a mammalian host cell described herein.

[2] = tested on: SaGluCl1 (short form “SC”) glutamate-gated chloride channel; experiment: Two microelectrode voltage clamp of Xenopus oocytes expressing SaGluCl1; format: cell-based, Schistocerca americana; settings: for activation of the channel (chloride current): short form of SaGluCl1 in Xenopus laevis oocytes; for current elicited on application of the compound: Xenopus oocyte, SaGluCl1 short form SC, membrane potential held at 0 mV (FIG. 3)
From the text: The measurement is made with the two microelectrode voltage clamp technique and the membrane potential was held at 0 mV. Two current recordings are superimposed. The bars at top show the duration of application of glutamate and ivermectin phosphate.
Full length cDNA clones corresponding to the selected RT-PCR sequences were used as template for synthesis of in vitro transcribed RNA (Ambion Inc.). The full-length cDNA encoding SaGluCl1 in a Bluescript plasmid is linearized and capped cRNA transcripts are synthesized using appropriate oligonucleotide primers and the mMESSAGE mMACHINE in vitro RNA transcription kit from Ambion. Xenopus laevis oocytes were prepared and injected using standard methods as described (Arena et al., 1991, Mol. Pharmacol. 40: 368–374; Arena et al, 1992, Mol. Brain Res. 15: 339–348). Adult female Xenopus laevis were anesthetized with 0.17% tricaine methanesulfonate and the ovaries were surgically removed and placed in a dish consisting of (mM): NaCl 82.5, KCl 2, MgCl2 1, CaCl2 1.8, HEPES 5, adjusted to pH 7.5 with NaOH(OR-2). Ovarian lobes were broken open, rinsed several times, and gently shaken in OR-2 containing 0.2% collagenase (Sigma, Type 1A) for 2–5 hours. When approximately 50% of the follicular layers were removed, Stage V and VI oocytes were selected and placed in media consisting of (mM): NaCl 86, KCl 2, MgCl2 1, CaCl2 1.8, HEPES 5, Na pyruvate 2.5, theophylline 0.5, gentamicin 0.1 adjusted to pH 7.5 with NaOH (ND-96) for 24–48 hours before injection. For most experiments, oocytes were injected with 10 ng of cRNA in 50 nl of RNase free water. Control oocytes were injected with 50 nl of water. Oocytes were incubated for 1–5 days in ND-96 supplemented with […] gentamycin, 2.5 mM Na pyruvate and 0.5 mM theophylline before recording. Incubations and collagenase digestion were carried out at 18° C.
Voltage-clamp studies were conducted with the two microelectrode voltage clamp technique using a Dagan CA1 amplifier (Dagan Instruments, Minneapolis, Minn.). The current passing microelectrodes were filled with 0.7 M KCl plus 1.7 M K3-citrate and the voltage recording microelectrodes were filled with 1.0 M KCl. The extracellular solution for most experiments was saline consisting of (mM): NaCl 96, BaCl2 3.5, MgCl2 0.5, CaCl2 0.1, HEPES 5, adjusted to pH 7.5 with NaOH. The extracellular chloride concentration was reduced in some experiments by equimolar replacement of NaCl with the sodium salt of the indicated anion. Experiments were conducted at 21–24° C. Data were acquired using the program Pulse and most analysis was performed with the companion program Pulsefit (Instrutech Instruments, Great Neck, N.Y.) or with Igor Pro (Wavemetrics, Lake Oswego, Oreg.). Data were filtered (fc, −3 db) at 1 kHz, unless otherwise indicated. […] The measurement was made as described in this Example with the two microelectrode voltage clamp technique and the membrane potential was held at 0 mV. Two current recordings are superimposed. The bars at top show the duration of application of glutamate and ivermectin phosphate.

nodulasporic acid
activation of homomultimer channel, current measured ([1]; 1 μM added at 20 seconds (FIG. 4B)): activated | activation of the channel (chloride current) [2]: activated

N[C@@H](CCC(=O)O)C(=O)O [glutamate, L-glutamate]
current elicited on application of the compound [2]: elicited a rapidly desensitizing current | activation of the channel (chloride current) [2]: robust L-glutamate-gated chloride current

CC[C@H](C)[C@H]1O[C@]2(CC[C@@H]1C)C[C@@H]1C[C@@H](C/C=C(\C)[C@@H](O[C@H]3C[C@H](OC)[C@@H](O[C@H]4C[C@H](OC)[C@@H](O)[C@H](C)O4)[C@H](C)O3)[C@@H](C)/C=C/C=C3\CO[C@@H]4[C@H](O)C(C)=C[C@@H](C(=O)O1)[C@]34O)O2 [ivermectin, 22,23-dihydro-avermectin B1a]
activation of homomultimer channel, current measured ([1]; 100 nM added at 20 seconds (FIG. 4A)): activated | activation of the channel (chloride current) [2]: activated

ivermectin phosphate
current elicited on application of the compound [2]: elicited a current of similar amplitude, but the channel stayed open much longer
